Assay results published in patent US20230382924A1, “MODULATORS OF CYSTIC FIBROSIS TRANSMEMBRANE CONDUCTANCE REGULATOR” (VERTEX PHARMACEUTICALS INCORPORATED, priority 2020, published 2023).
pEC50: −log10 of the molar value. Read-outs that look alike come from different tables or passages of the source. Each block holds one compound with its values, some of them ahead of it.

Legend:
CFTR [1] = target: T1, CFTR (Homo sapiens, UniProt P13569, DEL508-508); test: HBE assay: Ussing chamber assay of CFTR-mediated short-circuit currents in F508del/MF-HBE cells; type: cell-based; settings: 20% human serum; for HBE Activity at 10 μM (%): single fixed concentration of 10 μM with 1 μM Ivacaftor; for HBE Activity at 10 μM (%) / Emax: 18-24 hours, compared to known Vertex corrector with 18 μM Tezacaftor and 1 μM Ivacaftor; for pEC50: range of concentrations in combination with 1 μM Ivacaftor, 18-24 hours at 37° C.; for Emax: with 1 μM Ivacaftor, read-out: HBE Max Activity (%)
T1 construct: endogenous in cells; host or cells: primary human bronchial epithelial cells from CF subjects (F508del/MF)
Procedure: 1. Ussing Chamber Assay of CFTR-Mediated Short-Circuit Currents
Ussing chamber experiments were performed using human bronchial epithelial (HBE) cells derived from CF subjects heterozygous for F508del and a minimal function CFTR mutation (F508del/MF-HBE) and cultured as previously described (Neuberger T, Burton B, Clark H, Van Goor F Methods Mol Biol 2011:741:39-54). After four days the apical media was removed, and the cells were grown at an air liquid interface for >14 days prior to use.
To isolate the CFTR-mediated short-circuit (Isc) current, F508del/MF-HBE grown on Costar® Snapwell™ cell culture inserts were mounted in an Ussing chamber and the transepithelial Isc was measured under voltage-clamp recording conditions (Vhold=0 mV) at 37° C. The basolateral solution contained (in mM) 145 NaCl, 0.83 K2HPO4, 3.3 KH2P04, 1.2 MgCl2, 1.2 CaCl2), 10 Glucose, 10 HEPES (pH adjusted to 7.4 with NaOH) and the apical solution contained (in mM) 145 NaGluconate, 1.2 MgCl2, 1.2 CaCl2), 10 glucose, 10 HEPES (pH adjusted to 7.4 with NaOH) and 30 μM amiloride to block the epithelial sodium channel. Forskolin (20 μM) was added to the apical surface to activate CFTR, followed by apical addition of a CFTR inhibitor cocktail consisting of BPO, GlyH-101, and CFTR inhibitor 172 (each at 20 μM final assay concentration) to specifically isolate CFTR currents. The CFTR-mediated Isc (ρA/cm^2) for each condition was determined from the peak forskolin response to the steady-state current following inhibition.
2. Identification of Corrector Compounds
The activity of the CFTR corrector compounds on the CFTR-mediated Isc was determined in Ussing chamber studies as described above. The F508del/MF-HBE cell cultures were either incubated with the corrector compounds at a range of concentrations in combination with 1 μM Ivacaftor or were incubated with the corrector compounds at a single fixed concentration of 10 μM in combination with 1 μM Ivacaftor for 18-24 hours at 37° C. and in the presence of 20% human serum. The concentration of corrector compounds with 1 μM Ivacaftor during the 18-24 hours incubations was kept constant throughout the Ussing chamber measurement of the CFTR-mediated Isc to ensure compounds were present throughout the entire experiment.

CFTR [2] = target: T2, CFTR (Homo sapiens, UniProt P13569); test: Membrane Potential Dye, Enteroid Assay B; type: cell-based; settings: Table 9
Outline: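 Enteroid cells loaded 25 min at room temperature with 20 μM methyl oxonol plus 30 μM CaCCinh-A01 and 30 μM Chicago Sky Blue, then switched to chloride-free gluconate buffer. Chloride transport was started by chloride-free stimulation solution, with fluorescence read for 15 min.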

[3] = amide bond, 13-membered ring, DMF, 25.0 °C
CFTR [4] = target: T2, CFTR; test: Membrane Potential Dye, Enteroid Assay A; type: cell-based; settings: for pEC50: read-out: Ent. A EC50
Outline: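 Signal is reported as % Activity relative to a triple CFTR modulator control (3 μM + 3 μM + 300 nM acute). Read-out: membrane potential fluorescence (20 μM methyl oxonol) monitored for 15 min after chloride-free stimulation. Dye loading took 25 min at room temperature in Bath 1 buffer containing CaCC blockers.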

T1 sequence (P13569 with tags, fused parts or gaps DEL508-508): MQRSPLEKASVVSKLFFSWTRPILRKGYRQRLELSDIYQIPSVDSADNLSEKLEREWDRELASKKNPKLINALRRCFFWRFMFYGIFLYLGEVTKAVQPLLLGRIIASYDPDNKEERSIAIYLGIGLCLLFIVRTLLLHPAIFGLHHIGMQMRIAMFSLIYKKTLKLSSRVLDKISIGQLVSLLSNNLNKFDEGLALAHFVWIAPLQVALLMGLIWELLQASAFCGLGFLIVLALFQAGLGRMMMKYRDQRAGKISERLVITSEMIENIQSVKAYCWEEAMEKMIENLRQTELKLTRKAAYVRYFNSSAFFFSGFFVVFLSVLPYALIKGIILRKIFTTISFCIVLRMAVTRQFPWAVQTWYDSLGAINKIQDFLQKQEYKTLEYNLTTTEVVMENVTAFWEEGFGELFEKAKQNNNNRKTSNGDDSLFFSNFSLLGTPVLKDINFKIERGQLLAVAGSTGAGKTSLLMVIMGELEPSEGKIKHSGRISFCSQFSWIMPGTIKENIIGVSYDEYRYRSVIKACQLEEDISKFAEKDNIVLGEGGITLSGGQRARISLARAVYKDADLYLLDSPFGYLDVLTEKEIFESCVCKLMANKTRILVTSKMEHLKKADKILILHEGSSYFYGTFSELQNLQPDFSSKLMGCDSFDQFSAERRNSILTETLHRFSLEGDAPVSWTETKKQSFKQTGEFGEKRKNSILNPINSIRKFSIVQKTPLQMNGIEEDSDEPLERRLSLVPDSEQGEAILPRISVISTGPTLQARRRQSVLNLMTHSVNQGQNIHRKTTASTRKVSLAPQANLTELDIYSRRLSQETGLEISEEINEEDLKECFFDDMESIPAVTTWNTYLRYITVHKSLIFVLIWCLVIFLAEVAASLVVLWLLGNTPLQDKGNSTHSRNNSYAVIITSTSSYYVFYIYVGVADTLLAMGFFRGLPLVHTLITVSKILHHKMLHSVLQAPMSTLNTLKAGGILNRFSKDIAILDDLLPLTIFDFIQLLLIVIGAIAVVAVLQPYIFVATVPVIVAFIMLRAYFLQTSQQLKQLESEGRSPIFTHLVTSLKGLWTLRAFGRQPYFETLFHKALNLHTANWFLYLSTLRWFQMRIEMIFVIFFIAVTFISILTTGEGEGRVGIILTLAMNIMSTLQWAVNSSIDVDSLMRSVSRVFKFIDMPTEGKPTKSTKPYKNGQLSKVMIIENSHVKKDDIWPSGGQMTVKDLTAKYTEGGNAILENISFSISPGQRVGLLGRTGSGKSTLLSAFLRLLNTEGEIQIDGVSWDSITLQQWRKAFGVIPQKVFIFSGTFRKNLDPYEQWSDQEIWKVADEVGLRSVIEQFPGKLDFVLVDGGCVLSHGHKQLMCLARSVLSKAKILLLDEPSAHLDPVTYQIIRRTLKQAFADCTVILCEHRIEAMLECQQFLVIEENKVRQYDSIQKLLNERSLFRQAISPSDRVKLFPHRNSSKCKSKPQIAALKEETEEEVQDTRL
T2 sequence (P13569 with tags, fused parts or gaps DEL508-508): as above

SMILES: Cc1cccc(C)c1-c1cc2nc(n1)NS(=O)(=O)c1cccc(c1)C(=O)NC(C(CC(C)C)c1ccc(C(C)(C)C)cc1)CO2 (stereo not drawn) [Compound 208]
HBE Activity at 10 μM (%) (CFTR [1]): +++ (+++ is >60%)

SMILES: O=S1(=O)Nc2nc(Cl)cc(n2)-c2ccccc2CCCNc2cccc1c2
ring closure, isolated yield (from CC1(C)OB(c2ccccc2CCCNc2cccc(S(=O)(=O)Nc3nc(Cl)cc(Cl)n3)c2)OC1(C)C, cc_pd bond, 14-membered ring, Pd(PPh3)4/K2CO3, 1,4-dioxane/water, 11.2 mM, 90.0 °C, 5.0 h): 19%

SMILES: C=CCCCCCC[C@@H]1COc2cc(-c3ccccc3C=C)nc(n2)NS(=O)(=O)c2cccc(c2)C(=O)N1 [Compound 35, (11R)-11-Oct-7-enyl-2,2-dioxo-6-(2-vinylphenyl)-9-oxa-2λ^6-thia-3,5,12,19-tetrazatricyclo[12.3.1.14,8]nonadeca-1(18),4,6,8(19),14,16-hexaen-13-one]
ring closure, isolated yield (from C=CCCCCCC[C@@H](N)COc1cc(-c2ccccc2C=C)nc(NS(=O)(=O)c2cccc(C(=O)O)c2)n1, amide bond, 13-membered ring, HATU/NaOtBu, DMF/THF, 19.4 mM, 0.0 °C, 0.67 h, 2 steps): 35%
Ent. B Max Activity (CFTR [2]): ++ (++ is 30-60%)
pEC50 (CFTR [2]; read-out: Ent. B EC50): > 6.00

SMILES: Cc1cccc(C)c1-c1cc2nc(n1)NS(=O)(=O)c1cccc(c1)C(=O)NCC(c1ccc(C3(C(F)(F)F)CC3)cc1)O2 (stereo not drawn)
ring closure, isolated yield (from Cc1cccc(C)c1-c1cc(OC(CN)c2ccc(C3(C(F)(F)F)CC3)cc2)nc(NS(=O)(=O)c2cccc(C(=O)O)c2)n1, amide bond, 13-membered ring, HATU/NaOtBu, THF/DMF, 67.1 mM, 25.0 °C, 0.75 h, 2 steps): 26%

SMILES: Cc1cccc(C)c1-c1cc2nc(n1)NS(=O)(=O)c1cccc(c1)C(=O)NC(C(CC(C)C)c1cccc(C(C)(C)C)c1)CO2 (stereo not drawn) [Compound 209]
pEC50 (CFTR [1]): > 6.00

SMILES: COCN1c2nc3cc(n2)-c2ccccc2/C=C/CCCCCC[C@H](CO3)NC(=O)c2cccc(c2)S1(=O)=O
ring closure, isolated yield (from C=CCCCCCC[C@@H]1COc2cc(-c3ccccc3C=C)nc(n2)N(COC)S(=O)(=O)c2cccc(c2)C(=O)N1, rcm bond, 16-membered ring, Grubbs II, toluene, 16.4 mM, 100.0 °C, 1.5 h): 80%

SMILES: Cc1cccc(C)c1-c1cc2nc(n1)NS(=O)(=O)c1cccc(c1)C(=O)NC(C(CC(C)C)c1cccc(C(C)(C)C)c1)CO2 (stereo not drawn) [Compound 211]
pEC50 (CFTR [1]): > 6.00
Emax (CFTR [1]): > 60%

SMILES: Cc1cccc(C)c1-c1cc2nc(n1)NS(=O)(=O)c1cccc(c1)C(=O)NC(C(CC(C)C)c1ccc(C(C)(C)C)cc1)CO2 (stereo not drawn) [Compound 207]
HBE Activity at 10 μM (%) (CFTR [1]): + (+ is <30%)

SMILES: CC(C)C[C@@H]1COc2cc(Cl)nc(n2)NS(=O)(=O)c2cccc(c2)C(=O)N1
ring closure, isolated yield (from CC(C)C[C@@H](N)COc1cc(Cl)nc(NS(=O)(=O)c2cccc(C(=O)O)c2)n1, amide bond, 13-membered ring, HATU/Et3N, DMF, 29.1 mM, -5.0 °C, 0.17 h): 30%

SMILES: Cc1cccc(C)c1-c1cc2nc(n1)NS(=O)(=O)c1cccc(c1)C(=O)NC(C(CC(C)C)c1ccc(C(C)(C)C)cc1)CO2 (stereo not drawn) [Compound 210]
pEC50 (CFTR [1]): > 6.00
Emax (CFTR [1]): 30 to 60%

SMILES: Cc1ccc2ccccc2c1-c1cc2nc(n1)NS(=O)(=O)c1cccc(c1)C(=O)N[C@H](CC(C)(C)C)CO2 [Compound 52, (11R)-11-(2,2-Dimethylpropyl)-6-(2-methyl-1-naphthyl)-2,2-dioxo-9-oxa-2λ^6-thia-3,5,12,19-tetrazatricyclo[12.3.1.14,8]nonadeca-1(18),4(19),5,7,14,16-hexaen-13-one]
ring closure, yield after HPLC ([3]; from Cc1ccc2ccccc2c1-c1cc(OC[C@H](N)CC(C)(C)C)nc(NS(=O)(=O)c2cccc(C(=O)O)c2)n1, HATU/TEA, 44.8 mM, 2.0 h): 25%
pEC50 (CFTR [1]): > 6.00
Emax (CFTR [1]): > 60%

Now from value to compound, other results behind:

pEC50 (CFTR [1]): > 6.00
Emax (CFTR [1]): > 60%
SMILES: Cc1cccc(C)c1-c1cc2nc(n1)NS(=O)(=O)c1cccc(c1)C(=O)NC(C1CC3(CCC3)C1)CO2 (stereo not drawn) [Compound 50, 6-(2,6-Dimethylphenyl)-2,2-dioxo-11-spiro[3.3]heptan-2-yl-9-oxa-2λ^6-thia-3,5,12,19-tetrazatricyclo[12.3.1.14,8]nonadeca-1(18),4(19),5,7,14,16-hexaen-13-one]
ring closure, yield after HPLC ([3]; from Cc1cccc(C)c1-c1cc(OCC(N)C2CC3(CCC3)C2)nc(NS(=O)(=O)c2cccc(C(=O)O)c2)n1, CDMT/NMM, 46.6 mM, 1.5 h): 25%

HBE Activity at 10 μM (%) (CFTR [1]): +++ (+++ is >60%)
SMILES: Cc1cccc(C)c1-c1cc2nc(n1)NS(=O)(=O)c1cccc(c1)C(=O)N[C@H](CC1CC3(CCC3)C1)CO2 [Compound 49, (11R)-6-(2,6-Dimethylphenyl)-2,2-dioxo-11-(spiro[3.3]heptan-2-ylmethyl)-9-oxa-2λ^6-thia-3,5,12,19-tetrazatricyclo[12.3.1.14,8]nonadeca-1(18),4(19),5,7,14,16-hexaen-13-one]
ring closure, yield after HPLC ([3]; from Cc1cccc(C)c1-c1cc(OC[C@H](N)CC2CC3(CCC3)C2)nc(NS(=O)(=O)c2cccc(C(=O)O)c2)n1, CDMT/NMM, 32.4 mM, 1.5 h): 49%

pEC50 (CFTR [1]): > 6.00
Emax (CFTR [1]): > 60%
SMILES: Cc1cccc(CC2CCCCC2)c1-c1cc2nc(n1)NS(=O)(=O)c1cccc(c1)C(=O)N[C@H](CC(C)(C)C)CO2 [Compound 299]

HBE Activity at 10 μM (%) (CFTR [1]): + (+ is <30%)
SMILES: Cc1cccc(C)c1-c1cc2nc(n1)NS(=O)(=O)c1cccc(c1)C(=O)N[C@@H](CC(C)(C)C)CO2 [Compound 121]

Ent. A Max Activity (CFTR [4]; Table 9): +++ (+++ is >60%)
pEC50 (CFTR [4]; Table 9): > 6.00
SMILES: Cc1cccc(C)c1-c1cc2nc(n1)NS(=O)(=O)c1cccc(c1)C(=O)N[C@@H]1CN(C(=O)OC(C)(C)C)CC[C@H]1O2 [Compound 59, tert-Butyl (3R,8R)-20-(2,6-dimethylphenyl)-10,16,16-trioxo-2-oxa-16λ^6-thia-6,9,17,19,22-pentaazatetracyclo[16.3.1.111,15.03,8]tricosa-1(21),11(23),12,14,18(22),19-hexaene-6-carboxylate]
ring closure, isolated yield (from Cc1cccc(C)c1-c1cc(O[C@@H]2CCN(C(=O)OC(C)(C)C)C[C@H]2N)nc(NS(=O)(=O)c2cccc(C(=O)O)c2)n1, amide bond, 13-membered ring, COMU/DIEA, DMF, 19.4 mM, 19.0 h): 34%

pEC50 (CFTR [4]; Enteroid Assay A): 5.52 to 6.00
SMILES: Cc1cccc(C)c1-c1cc2nc(n1)NS(=O)(=O)c1cccc(c1)C(=O)NCC1(CCN(C(=O)OC(C)(C)C)CC1)CO2 [Compound 81, tert-Butyl 6-(2,6-dimethylphenyl)-2,2,14-trioxo-spiro[9-oxa-2λ^6-thia-3,5,13,20-tetrazatricyclo[13.3.1.14,8]icosa-1(19),4(20),5,7,15,17-hexaene-11,4′-piperidine]-1′-carboxylate]
ring closure, isolated yield (from Cc1cccc(C)c1-c1cc(Cl)nc(NS(=O)(=O)c2cccc(C(=O)NCC3(CO)CCN(C(=O)OC(C)(C)C)CC3)c2)n1, snar bond, 14-membered ring, NaH, THF, 5.0 mM, 25.0 °C, 3.0 h): 66%

pEC50 (CFTR [1]): > 6.00
Emax (CFTR [1]): > 60%
SMILES: Cc1ccc(C)c(-c2cc3nc(n2)NS(=O)(=O)c2cccc(c2)C(=O)N[C@H](CC(C)(C)C)CO3)c1C [Compound 51, (11R)-11-(2,2-Dimethylpropyl)-6-(2,3,6-trimethylphenyl)-9-oxa-2λ^6-thia-3,5,12,19-tetraazatricyclo[12.3.1.14,8]nonadeca-1(18),4,6,8(19),14,16-hexaene-2,2,13-trione]
ring closure, yield after HPLC ([3]; from Cc1ccc(C)c(-c2cc(OC[C@H](N)CC(C)(C)C)nc(NS(=O)(=O)c3cccc(C(=O)O)c3)n2)c1C, CDMT/NMM, 23.7 mM, 16.0 h): 31%
